In one data set the test system is MDA-MB-231. As to the kind of experiment: Growth inhibition of human MDA-MB-231 cells. Conditions: Homo sapiens, MDA-MB-231. Format: functional.
A short description of data set [1]: Lipophilicity, log D of the compound. Conditions: octanol/water, logD.
A short description of data set [2]: Aqueous solubility of the compound.
The nature of data set [3]: Intrinsic clearance in human liver microsomes. Conditions: CLH.
Data set [4] in a line: Percentage unbound in human plasma. As to conditions: Fu.

Take `CN[C@@H](C)C(=O)N[C@H]1CCC[C@H]2C[C@H]3CCN(CCc4ccccc4)C[C@H]3N2C1=O`: the GI50 in the data set with MDA-MB-231 was 0.32 µM. This compound gave a logD in data set [1] of 1.3. The solubility in data set [2] was more than 1000 µM. In data set [3] (liver microsomes), this compound yielded a microsomal CLint of less than 4 µL/min/mg. In data set [4], this compound showed a fraction unbound of 0.51.

`CN[C@@H](C)C(=O)N[C@H]1CCC[C@H]2C[C@H]3CCN(CCc4ccc(Br)cc4)C[C@H]3N2C1=O` displayed a GI50 in the data set with MDA-MB-231 of 0.028 µM. In data set [1], this compound had a logD of 2.2. Moreover, the solubility in data set [2] was more than 1000 µM. The same compound gave a microsomal CLint in data set [3] (liver microsomes) of 4.7 µL/min/mg. For the same compound, the fraction unbound in data set [4] was 0.17.

In the data set on MDA-MB-231, `CN[C@@H](C)C(=O)N[C@H]1CCC[C@H]2C[C@H]3CCN(CCc4ccccc4F)C[C@H]3N2C1=O` had a GI50 of 0.096 µM. The logD in data set [1] turned out to be 1.4. The compound also returned a microsomal CLint in data set [3] (liver microsomes) of less than 4 µL/min/mg. Moreover, the fraction unbound in data set [4] amounted to 0.49.

`CN[C@@H](C)C(=O)N[C@H]1CCC[C@H]2C[C@H]3CCN(CCc4ccccc4OC)C[C@H]3N2C1=O` yielded a GI50 with MDA-MB-231 of 0.23 µM. The compound also displayed a logD in data set [1] of 0.9. In addition, the solubility in data set [2] was more than 1000 µM. This compound also came in with an intrinsic metabolic clearance (microsomal CLint) in data set [3] (liver microsomes) of less than 4 µL/min/mg. In data set [4], this compound gave a fraction unbound of 0.34.

`CN[C@@H](C)C(=O)N[C@H]1CCC[C@H]2C[C@H]3CCN(CCc4cccc(OC)c4)C[C@H]3N2C1=O` had a GI50 with MDA-MB-231 of 0.67 µM. For the same compound, the logD in data set [1] worked out at 0.9. In data set [2], this compound yielded a solubility of more than 1000 µM. This compound came in with a microsomal CLint in data set [3] (liver microsomes) of less than 4 µL/min/mg. Further, the fraction unbound in data set [4] is 0.47.

`CN[C@@H](C)C(=O)N[C@H]1CCC[C@H]2C[C@H]3CCN(CCc4ccc(OC)cc4)C[C@H]3N2C1=O` showed a GI50 in the data set with MDA-MB-231 of 2.6 µM. Further, the logD in data set [1] was determined as 1. In addition, the solubility in data set [2] is more than 1000 µM. Besides, in data set [3] (liver microsomes), the microsomal CLint was less than 4 µL/min/mg. In data set [4], this compound displayed a free fraction (fraction unbound) of 0.47.

For `CN[C@@H](C)C(=O)N[C@H]1CCC[C@H]2C[C@H]3CCN(CCc4ccc(O)cc4)C[C@H]3N2C1=O`, in the data set on MDA-MB-231, the GI50 stood at 0.2 µM. The compound also registered a logD in data set [1] of 0.2. In data set [2], the solubility is more than 1000 µM.

For the compound `CN[C@@H](C)C(=O)N[C@H]1CCC[C@H]2C[C@H]3CCN(CCc4ccccc4C)C[C@H]3N2C1=O`, it took 0.37 µM to inhibit growth with MDA-MB-231 by half (GI50). In data set [1], this compound gave a logD of 1.3. The solubility in data set [2] was more than 1000 µM. This compound also registered a microsomal CLint in data set [3] (liver microsomes) of 6.8 µL/min/mg. Moreover, in data set [4], the fraction unbound was determined as 0.48.

Turning to `CN[C@@H](C)C(=O)N[C@H]1CCC[C@H]2C[C@H]3CCN(CCc4cccc(C)c4)C[C@H]3N2C1=O`, halving of growth in the data set on MDA-MB-231 (GI50) required 0.31 µM. This compound returned a pH-dependent lipophilicity (logD) in data set [1] of 1.3. For the same compound, in data set [2], the solubility is more than 1000 µM. The same compound yielded a microsomal CLint in data set [3] (liver microsomes) of 6.9 µL/min/mg. Moreover, the fraction unbound in data set [4] turned out to be 0.47.

In the data set on MDA-MB-231, `CN[C@@H](C)C(=O)N[C@H]1CCC[C@H]2C[C@H]3CCN(CCc4ccc(C)cc4)C[C@H]3N2C1=O` returned a concentration for 50% growth inhibition (GI50) of 0.16 µM. Moreover, the logD in data set [1] was 1.6. This compound came in with a solubility in data set [2] of more than 1000 µM. Besides, the microsomal CLint in data set [3] (liver microsomes) is less than 4 µL/min/mg. For the same compound, the fraction unbound in data set [4] came out at 0.32.

In the data set with MDA-MB-231, `CN[C@@H](C)C(=O)N[C@H]1CCC[C@H]2C[C@H]3CCN(CCc4c[nH]c5ccccc45)C[C@H]3N2C1=O` returned a GI50 of 0.49 µM. The same compound had a logD in data set [1] of 0.9. Moreover, in data set [2], the solubility is more than 1000 µM. Further, the microsomal CLint in data set [3] (liver microsomes) is less than 4 µL/min/mg.

Compound `CN[C@@H](C)C(=O)N[C@H]1CCC[C@H]2C[C@H]3CCN(CCc4scnc4C)C[C@H]3N2C1=O` had a concentration for 50% growth inhibition (GI50) in the data set on MDA-MB-231 of 4.5 µM. The pH-dependent lipophilicity (logD) in data set [1] was found to be 0.3. Moreover, in data set [2], the solubility was more than 1000 µM.

Take `CN[C@@H](C)C(=O)N[C@H]1CCC[C@H]2C[C@H]3CCN(C(=O)OCc4ccccc4)C[C@H]3N2C1=O`: in the data set with MDA-MB-231, the GI50 was more than 0.369 µM. This compound registered a microsomal CLint in data set [3] (microsomes) of 20 µL/min/mg. Further, the fraction unbound in data set [4] worked out at 0.42.

The values are drawn from ChEMBL document CHEMBL3232969, “Structure-based design and synthesis of tricyclic IAP (Inhibitors of Apoptosis Proteins) inhibitors” (Bioorg Med Chem Lett, 2014).
